Reference: paper PMC7243741 (Bioorganic & medicinal chemistry letters, 2019)

Assays:
[1] = biological target: T1, GST-tagged PPARγ ligand-binding domain (PPARγ LBD) (Homo sapiens, UniProt P37231); test: In vitro competition binding assay
T1 sequence (P37231 238-503 limits assumed): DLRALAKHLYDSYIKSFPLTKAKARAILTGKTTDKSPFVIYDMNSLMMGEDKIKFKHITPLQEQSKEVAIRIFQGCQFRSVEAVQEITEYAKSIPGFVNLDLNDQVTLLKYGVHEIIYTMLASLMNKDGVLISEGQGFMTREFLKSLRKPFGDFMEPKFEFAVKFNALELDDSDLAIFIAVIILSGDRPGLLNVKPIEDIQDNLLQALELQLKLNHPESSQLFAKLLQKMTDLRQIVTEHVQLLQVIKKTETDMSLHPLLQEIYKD

[2] = tested on: PPARγ phosphorylation at S273; format: cell-based, mouse; details: 3T3-L1 differentiated adipocytes, in the presence of TNFα, compounds at 10 μM, Western blot with pSer273-specific antibody
[3] = biological target: T1, GST-tagged PPARγ ligand-binding domain (PPARγ LBD); test: biochemical
3T3-L1 cells = test: Oil Red O staining of 3T3-L1 adipocyte differentiation; format: cell-based, mouse; details: 3T3-L1 in differentiation media, compounds at 10 μM

Compound | fold improvement in PPARγ binding potency compared to parental compound UHC1 ([1]; ratio of IC50 vs UHC1) | Inhibition of PPARγ S273 phosphorylation [2] | IC50 [1] | Ki [3] | Adipocyte differentiation (Oil Red O staining of lipid droplets) (3T3-L1 cells)
COc1cc(CNC(=O)c2ccc3c(c2)c(C)c(C)n3Cc2ccc(-c3ccccc3C(=O)O)cc2)ccc1O [Compound 2e, 4’-((5-((4-Hydroxy-3-methoxybenzyl)carbamoyl)-2,3-dimethyl-1H-indol-1-yl)methyl)-[1,1’-biphenyl]-2-carboxylic acid] | over 30 fold | significantly inhibited |  |  | 
Cc1cc(C(=O)NCc2cccc(O)c2)ccc1NCc1ccc(-c2ccccc2C(=O)O)cc1 [Compound 5, 4’-(((4-((3-Hydroxybenzyl)carbamoyl)-2-methylphenyl)amino)methyl)-[1,1’-biphenyl]-2-carboxylic acid] |  |  | 0.325 µM | 0.254 µM | 
Cc1c(C)n(Cc2ccc(-c3ccccc3C(=O)O)cc2)c2ccc(C(=O)NCc3cccnc3)cc12 [UHC1, reference compound] |  | significantly inhibited |  |  | significantly reduced Oil Red O staining
